Test system: K24384-001-R-PDC complex spheroid viability
Assay: Anticancer human tumor K24384-001-R-PDC patient-derived pancreatic adenocarcinoma cell line growth inhibition
Conditions: for IC50: curve of first compound; for viability, T/C: stronger effect = lower value
Procedure, shortened: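 Complex spheroids of tumor cells with HUVEC and human MSCs, exposed to iadademstat combined with other agents. Each agent tested in half-log steps from near clinical Cmax (else 10 microM top), DMSO ≤0.25%.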

[1] = second compound 0.1 µM, first compound 0.0316 µM
[2] = second compound 0.1 µM, first compound 0.1 µM
[3] = second compound 0.1 µM, first compound 0.316 µM
[4] = second compound 0.1 µM, first compound 1 µM
[5] = second compound 0.1 µM, first compound 3.16 µM
[6] = second compound 0.1 µM, first compound 10 µM
[7] = second compound 0.316 µM, first compound 0.0316 µM
[8] = second compound 0.316 µM, first compound 0.1 µM
[9] = second compound 0.316 µM, first compound 0.316 µM
[10] = second compound 0.316 µM, first compound 1 µM
[11] = second compound 0.316 µM, first compound 3.16 µM
[12] = second compound 0.316 µM, first compound 10 µM
[13] = second compound 1 µM, first compound 0.0316 µM
[14] = second compound 1 µM, first compound 0.1 µM
[15] = second compound 1 µM, first compound 0.316 µM
[16] = second compound 1 µM, first compound 1 µM
[17] = second compound 1 µM, first compound 3.16 µM
[18] = second compound 1 µM, first compound 10 µM
[19] = second compound 3.16 µM, first compound 0.0316 µM
[20] = second compound 3.16 µM, first compound 0.1 µM
[21] = second compound 3.16 µM, first compound 0.316 µM
[22] = second compound 3.16 µM, first compound 1 µM
[23] = second compound 3.16 µM, first compound 3.16 µM
[24] = second compound 3.16 µM, first compound 10 µM
[25] = second compound 10 µM, first compound 0.0316 µM
[26] = second compound 10 µM, first compound 0.1 µM
[27] = second compound 10 µM, first compound 0.316 µM
[28] = second compound 10 µM, first compound 1 µM
[29] = second compound 10 µM, first compound 3.16 µM
[30] = second compound 10 µM, first compound 10 µM
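Further: spheroids exposed to agents for seven days before luminescence viability reading.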
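Wherever viability, T/C is given: 100% = DMSO vehicle control viability.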

## CC1(C)CCC(CN2CCN(c3ccc(C(=O)NS(=O)(=O)c4ccc(NCC5CCOCC5)c([N+](=O)[O-])c4)c(Oc4cnc5[nH]ccc5c4)c3)CC2)=C(c2ccc(Cl)cc2)C1 + NC1CCC(NC2CC2c2ccccc2)CC1
Second compound 0.1 µM
  IC50: 3080 nM
Second compound 0.316 µM
  IC50: 2740 nM
Second compound 1 µM
  IC50: 2280 nM
Second compound 3.16 µM
  IC50: 3110 nM
Second compound 10 µM
  IC50: 3730 nM
[1]
  viability, T/C: 80.2%
[2]
  viability, T/C: 95.5%
[3]
  viability, T/C: 85%
[4]
  viability, T/C: 89.8%
[5]
  viability, T/C: 49.1%
[6]
  viability, T/C: 0.77%
[7]
  viability, T/C: 79.5%
[8]
  viability, T/C: 90.2%
[9]
  viability, T/C: 88.9%
[10]
  viability, T/C: 94.5%
[11]
  viability, T/C: 44.6%
[12]
  viability, T/C: 0.44%
[13]
  viability, T/C: 84%
[14]
  viability, T/C: 86%
[15]
  viability, T/C: 81.6%
[16]
  viability, T/C: 81.6%
[17]
  viability, T/C: 37.6%
[18]
  viability, T/C: 0.69%
[19]
  viability, T/C: 87.3%
[20]
  viability, T/C: 72.9%
[21]
  viability, T/C: 77.3%
[22]
  viability, T/C: 92.2%
[23]
  viability, T/C: 49.6%
[24]
  viability, T/C: 0.87%
[25]
  viability, T/C: 73.9%
[26]
  viability, T/C: 92.9%
[27]
  viability, T/C: 77.8%
[28]
  viability, T/C: 76.9%
[29]
  viability, T/C: 58.4%
[30]
  viability, T/C: 0.69%

## CC1COCCN1c1cc(C2(S(C)(=N)=O)CC2)nc(-c2ccnc3[nH]ccc23)n1 (stereo not given) + NC1CCC(NC2CC2c2ccccc2)CC1
Second compound 0.1 µM
  IC50: 2450 nM
Second compound 0.316 µM
  IC50: 1630 nM
Second compound 1 µM
  IC50: 2320 nM
Second compound 3.16 µM
  IC50: 1830 nM
Second compound 10 µM
  IC50: 1710 nM
[1]
  viability, T/C: 82.9%
[2]
  viability, T/C: 79.5%
[3]
  viability, T/C: 91.1%
[4]
  viability, T/C: 71.5%
[5]
  viability, T/C: 43.2%
[6]
  viability, T/C: 44.5%
[7]
  viability, T/C: 95.2%
[8]
  viability, T/C: 90.1%
[9]
  viability, T/C: 107%
[10]
  viability, T/C: 57.5%
[11]
  viability, T/C: 45.5%
[12]
  viability, T/C: 34.3%
[13]
  viability, T/C: 84.4%
[14]
  viability, T/C: 88%
[15]
  viability, T/C: 84.3%
[16]
  viability, T/C: 67%
[17]
  viability, T/C: 44%
[18]
  viability, T/C: 38.9%
[19]
  viability, T/C: 80.6%
[20]
  viability, T/C: 97.6%
[21]
  viability, T/C: 82.9%
[22]
  viability, T/C: 60.4%
[23]
  viability, T/C: 41.8%
[24]
  viability, T/C: 34.4%
[25]
  viability, T/C: 79.6%
[26]
  viability, T/C: 74%
[27]
  viability, T/C: 76.8%
[28]
  viability, T/C: 60.4%
[29]
  viability, T/C: 36.9%
[30]
  viability, T/C: 39%

— PubChem BioAssay AID1918949 (Molecular Pharmacology Branch, DTP, NCI, 2023)
